What was measured:
[1] = test system: endogenen Konzentrationen von Dopamin im Rattenhirn; assay: Endogenous dopamine concentration in rat brain; type: in vivo, Ratte; conditions: no influence up to this dose, p.o. for Formel I (Hydrochlorid)
[2] = test system: Noradrenalindepletierenden Effektes von H 77/77 (3-Hydroxy-4,a-dimethyl- phenäthylamin) im Rattenhirn; assay: Inhibition of the noradrenaline-depleting effect of H 77/77 in rat brain (indirect measure of noradrenaline uptake inhibition); type: in vivo, Ratte; conditions: po, Formel I tested as Hydrochlorid, read-out: ED50 Hemmung des Noradrenalindepletierenden Effektes von H 77/77 im Rattenhirn
[3] = test system: endogenen Konzentrationen von Noradrenalin im Rattenhirn; assay: Endogenous noradrenaline concentration in rat brain; type: in vivo, Ratte; conditions: no influence up to this dose, p.o. for Formel I (Hydrochlorid)
[4] = test system: Noradrenalin- Aufnahme ins Rattenherz; assay: Inhibition of noradrenaline uptake into rat heart (method of Maitre, Staehelin and Bein); type: in vivo, Ratte; conditions: po, Formel I tested as Hydrochlorid, read-out: ED50 Hemmung der Noradrenalin- Aufnahme ins Rattenherz
Description: Neurobiochemisch zeigt das Hydrochlorid der Verbindung der Formel I eine starke Hemmung der Noradrenalin- Aufnahme ins Rattenherz gemäss der Methode von L. Maitre, M. Staehelin und H. Bein, Biochem. Pharmacol. 20, 2169 (1971) mit einer ED50 von etwa 0,3 mg/kg p.o., während die ED50 des entsprechenden Racemats bei etwa 1,5 mg/kg p.o. liegt, wie auch eine starke Hemmung des Noradrenalindepletierenden Effektes von H 77/77 (3-Hydroxy-4,a-dimethyl- phenäthylamin) im Rattenhirn als indirekte Anzeige der Noradrenalin-Aufnahme-Hemmung [A. Carlsson, H. Corrodi, K. Fuxe und T. Hoefkelt, Europ. J. Pharmacol. 5, 367 (1969)] mit einer ED50 von etwa 2 mg/kg p.o., gegenüber einer ED50 von etwa 10 mg/kg p.o. des entsprechenden Racemats. Die endogenen Konzentrationen von Noradrenalin und von Dopamin im Rattenhirn, gemessen nach P. Waldmeier, de Herdt und L. Maitre [Chir. Chem. 20, 81, (1974)] werden weder vom Hydrochlorid der Verbindung der Formel I in Dosen bis 100 mg/kg bzw. bis 30 mg/kg p.o., noch vom entsprechenden Racemat in Dosen bis 10 mg/kg bzw. bis 100 mg/kg beeinflusst.

[5] = test system: durch 2 mg/kg sc. Reserpin induzierte Ptosis; assay: Antagonism of reserpine-induced ptosis; type: in vivo, männlichen Ratten
Description: (§1) Das S-(+)-o-[Methylamino)methyl]-9,10-äthanoan- thracen-9(10H)-äthanol und seine Säureadditionssalze besitzen wertvolle pharmakologische Eigenschaften. Vor allem zeigen sie sehr starke Wirkungen in Tests, die für Antidepressiva charakteristisch sind. Eine deutliche Antagonisierung der durch 2 mg/kg sc. Reserpin induzierten Hypothermie an männlichen Mäusen [Askew, Life Sci. 10, 725 (1963),und Benz und Waser, Dissertation 1971, Pharmakolog. […] Die durch 2 mg/kg sc. Reserpin induzierte Ptosis an männlichen Ratten [Rubin et al, J. Pharmacol. Exp. Therap.

[6] = test system: isolierten rechten Vorhof; parameters: species or system Meerschweinchen
[7] = Acute toxicity; type: in vivo
[8] = test system: Histamin-Toxizität; assay: Antagonism of histamine toxicity; type: in vivo, Meerschweinchen; conditions: guinea pig; equal doses of Formel I (tested as Hydrochlorid) and Racemat
Source text: (§2) Therap. 125, 28-34 (1959)], während bei der Antagonisierung der durch Tetrabenazin induzierten Katalepsie der Ratte nach oraler Verabreichung, und bei der Potenzierung der durch G 29 505 [2-(4-Allyl-2-methoxyphenoxy)-N,N-diäthyl-acetamid] bewirkten Narkose der Maus [W. Theobald und R. Domenjoz, Arzneimittelforsch.

[9] = test system: exploratorischen Aktivität der Maus; assay: Exploratory activity; type: in vivo; conditions: mouse; equal doses of Formel I (tested as Hydrochlorid) and Racemat
[10] = test system: durch G 29 505 [2-(4-Allyl-2-methoxyphenoxy)-N,N-diäthyl-acetamid] bewirkten Narkose der Maus; assay: Potentiation of G 29 505-induced narcosis; type: in vivo; conditions: mouse; intraperitoneal administration; Hydrochlorid compared with Racemat
Source text: as §2

[11] = test system: durch Tetrabenazin induzierten Katalepsie der Ratte; assay: Antagonism of tetrabenazine-induced catalepsy; type: in vivo; conditions: rat; oral administration; Hydrochlorid compared with Racemat
Source text: as §2

[12] = test system: durch 2 mg/kg sc. Reserpin induzierten Hypothermie; assay: Antagonism of reserpine-induced hypothermia; type: in vivo, männlichen Mäusen; conditions: male mice, Hydrochlorid compared with the corresponding Racemat
Description: as §1

[13] = test system: durch Fuss-Schock induzierten Kampfreaktion der Maus; assay: Foot-shock induced fighting reaction; type: in vivo; conditions: mouse; equal doses of Formel I (tested as Hydrochlorid) and Racemat
Source text: as §2

SMILES | Dosen, bis zu denen die endogene Konzentration von Dopamin im Rattenhirn nicht beeinflusst wird [1] [mg/kg] | ED50 [2] [mg/kg] | Dosen, bis zu denen die endogene Konzentration von Noradrenalin im Rattenhirn nicht beeinflusst wird [3] [mg/kg] | ED50 [4] [mg/kg] | Dosierung, die die Reserpin induzierte Ptosis völlig aufhebt ([5]; male rats, relative to 0,3 mg/kg p.o. of the Hydrochlorid of Formel I) | negativ chronotrope Wirkung, Vergleich mit Racemat [6] | akute Toxizität, Vergleich mit Racemat ([7]; intravenous administration) | akute Toxizität, Vergleich mit Racemat ([7]; oral administration) | Antagonisierung der Histamin-Toxizität, Vergleich mit Racemat [8] | exploratorische Aktivität, Vergleich mit Racemat [9] | Potenzierung der durch G 29 505 bewirkten Narkose, Vergleich mit Racemat [10] | Antagonisierung der durch Tetrabenazin induzierten Katalepsie, Vergleich mit Racemat [11] | Antagonisierung der Reserpin induzierten Hypothermie, Vergleich mit Racemat [12] | durch Fuss-Schock induzierte Kampfreaktion, Vergleich mit Racemat [13] | Reserpin induzierte Ptosis ([5]; male rats, 0,3 mg/kg p.o. of the Hydrochlorid) | Reserpin induzierte Ptosis ([5]; male rats, O,1 mg/kg p.o. of the Hydrochlorid)
CNCC(O)CC12CCC(c3ccccc31)c1ccccc12 (racemic) [Racemat, a-[(Methylamino)methyl]-9,10-äthanoanthracen-9(10H)-äthanol, reference compound] | ≤ 100 | ~10 | ≤ 10 | ~1.5 | erheblich höheren Dosierung |  |  |  |  |  |  |  |  |  |  | 
CNC[C@@H](O)CC12CCC(c3ccccc31)c1ccccc12 [Verbindung der Formel I, S-(+)-a-[(Methylamino)methyl]-9,10-äthanoanthracen-9(10H)-äthanol] | ≤ 30 | ~2 | ≤ 100 | ~0.3 |  | schwächer | ungefähr gleich | ungefähr gleich | ungefähr dieselben Wirkungen | ungefähr dieselben Wirkungen | in ungefähr der halben Dosierung gleich wirksam | in ungefähr der halben Dosierung gleich wirksam | stärker als die Wirkung von mehrfachen Dosen des entsprechenden Racemats | ungefähr dieselben Wirkungen | aufgehoben | deutlich vermindert
